From ChEMBL document CHEMBL5154881, “Discovery of First-in-Class TAK1-MKK3 Protein-Protein Interaction (PPI) Inhibitor (R)-STU104 for the Treatment of Ulcerative Colitis through Modulating TNF-α Production” (J Med Chem, 2022)
pIC50, pKd: −log10 of the molar value.

How the values were obtained:
[1] = Metabolic stability in dog liver microsomes assessed as intrinsic clearance at […] measured upto 60 mins in presence of NADPH by HPLC-MS analysis; type: ADME, Canis lupus familiaris, Microsome; parameters: dose or concentration left out as unconfirmed; conditions: 1 h
[2] = n-Octanol/water partition coefficient, logP of the compound incubated for 24 hrs by HPLC analysis; type: physicochemical
[3] = Mutagenicity in Salmonella typhimurium by Ames test; type: toxicity; conditions: salmonella enterica subsp. enterica serovar typhimurium
[4] = AUC (0 to infinity) in 12 hr starved C57 mouse at 5 mg/kg, iv measured for 0.083 to 24 hrs post-dose by LC-MS-MS analysis; type: ADME, organism-based; parameters: time upper 24 hrs, time lower 0.083 hrs, dose 5 mg/kg, route iv; conditions: in vivo
[5] = Half life in 12 hr starved C57 mouse at 5 mg/kg, iv measured for 0.083 to 24 hrs post-dose by LC-MS-MS analysis; type: ADME, organism-based; conditions: in vivo, time 0.083-24 hrs
[6] = Apparent clearance during terminal phase in 12 hr starved C57 mouse at 5 mg/kg, iv measured for 0.083 to 24 hrs post-dose by LC-MS-MS analysis; type: ADME, organism-based; conditions: in vivo, time 0.083-24 hrs
[7] = Bioavailability in 12 hr starved C57 mouse […] measured for 0.083 to 24 hrs post-dose by LC-MS-MS analysis; type: ADME, organism-based; conditions: in vivo, time 0.083-24 hrs
Mus musculus [8] = experiment: Anti-ulcerative colitis activity in DSS-induced C57BL/6 mouse ulcerative colitis model assessed as colon length recovery ratio at 1 mg/kg, IG via gavage measured after 7 days relative to control; type: functional; conditions: time 7 day
Mus musculus [9] = experiment: Antiinflammatory activity against DSS-induced C57BL/6 mouse model of acute ulcerative colitis assessed as inhibition ratio of TNF-alpha protein expression at 1 mg/kg, IG via gavage measured after 7 days by ELISA relative to control; type: functional; parameters: scale not given: the % may be the effect or the level left; conditions: time 7 day
Mus musculus [10] = experiment: Antiinflammatory activity against DSS-induced C57BL/6 mouse model of acute ulcerative colitis assessed as inhibition ratio of IL-1beta protein expression at 1 mg/kg, IG via gavage measured after 7 days by ELISA relative to control; type: functional; parameters: scale not given: the % may be the effect or the level left; conditions: time 7 day
Mus musculus [11] = experiment: Antiinflammatory activity against DSS-induced C57BL/6 mouse model of acute ulcerative colitis assessed as inhibition ratio of IL-1beta protein expression at 10 mg/kg, IG via gavage measured after 7 days by ELISA relative to control; type: functional; parameters: scale not given: the % may be the effect or the level left; conditions: time 7 day
Mus musculus [12] = experiment: Antiinflammatory activity against DSS-induced C57BL/6 mouse model of acute ulcerative colitis assessed as inhibition ratio of IL-6 mRNA expression in colon tissue at 1 mg/kg, IG via gavage measured after 7 days by RT-qPCR analysis relative to control; type: functional; parameters: scale not given: the % may be the effect or the level left; conditions: time 7 day
Mus musculus [13] = experiment: Antiinflammatory activity against DSS-induced C57BL/6 mouse model of acute ulcerative colitis assessed as inhibition ratio of IL-6 mRNA expression in colon tissue at 3 mg/kg, IG via gavage measured after 7 days by RT-qPCR analysis relative to control; type: functional; parameters: scale not given: the % may be the effect or the level left; conditions: time 7 day
Mus musculus [14] = experiment: Antiinflammatory activity against DSS-induced C57BL/6 mouse model of acute ulcerative colitis assessed as inhibition ratio of IL-1beta mRNA expression in colon tissue at 3 mg/kg, IG via gavage measured after 7 days by RT-qPCR analysis relative to control; type: functional; parameters: scale not given: the % may be the effect or the level left; conditions: time 7 day
Mus musculus [15] = experiment: Antiinflammatory activity against DSS-induced C57BL/6 mouse model of acute ulcerative colitis assessed as inhibition ratio of TNF-alpha mRNA expression in colon tissue at 3 mg/kg, IG via gavage measured after 7 days by RT-qPCR analysis relative to control; type: functional; parameters: scale not given: the % may be the effect or the level left; conditions: time 7 day
Mus musculus [16] = experiment: Antiinflammatory activity against DSS-induced C57BL/6 mouse model of acute ulcerative colitis assessed as inhibition ratio of IL-23 mRNA expression in colon tissue at 3 mg/kg, IG via gavage measured after 7 days by RT-qPCR analysis relative to control; type: functional; parameters: scale not given: the % may be the effect or the level left; conditions: time 7 day
Mus musculus [17] = experiment: Anti-ulcerative colitis activity in IL-10-/- C57BL/6 mouse model of ulcerative colitis assessed as colon length recovery ratio at 3 mg/kg, IG via gavage for 8 weeks relative to control; type: functional
Mus musculus [18] = experiment: Anti-ulcerative colitis activity in IL-10-/- C57BL/6 mouse model of ulcerative colitis assessed as histopathological score recovery ratio at 3 mg/kg, IG via gavage for 8 weeks relative to control; type: functional
Mus musculus [19] = experiment: Antiinflammatory activity against IL-10-/- C57BL/6 mouse model of ulcerative colitis assessed as inhibition ratio of IL-1beta protein expression at 10 mg/kg, IG via gavage and measured after 8 weeks by ELISA relative to control; type: functional; parameters: scale not given: the % may be the effect or the level left
Mus musculus [20] = experiment: Antiinflammatory activity against IL-10-/- C57BL/6 mouse model of ulcerative colitis assessed as inhibition ratio of IL-6 protein expression at 10 mg/kg, IG via gavage and measured after 8 weeks by ELISA relative to control; type: functional; parameters: scale not given: the % may be the effect or the level left
Mus musculus [21] = experiment: Antiinflammatory activity against IL-10-/- C57BL/6 mouse model of ulcerative colitis assessed as inhibition ratio of IL-6 mRNA expression in colon tissue at 10 mg/kg, IG via gavage and measured after 8 weeks by RT-qPCR analysis relative to control; type: functional; parameters: scale not given: the % may be the effect or the level left
[22] = Inhibition of MKK3-p38-elF4E signaling pathway in mouse RAW264.7 cells assessed as inhibition of LPS-induced MKK3 phosphorylation; type: cell-based
Mus musculus [23] = experiment: Inhibition of MKK3-p38 MAPK-elF4E signaling pathway in C57BL/6 mouse model of acute ulcerative colitis assessed as decrease in DSS-induced MK2 phosphorylation in colon tissue administered intragastrically via gavage measured after 7 days by Western blot analysis; conditions: dose 1-50 mg/kg, time 7.0 day, DDE = dose-dependent effect
[24] = biological target: T1, Dual specificity mitogen-activated protein kinase kinase 3 (Homo sapiens, UniProt P46734); experiment: Binding affinity to CM5 chip immobilized human MKK3 (20 to 347 residues) expressed in Escherichia coli BL21 (DE3) assessed as dissociation constants, KD by surface plasmon resonance analysis
T1 sequence (P46734 whole entry): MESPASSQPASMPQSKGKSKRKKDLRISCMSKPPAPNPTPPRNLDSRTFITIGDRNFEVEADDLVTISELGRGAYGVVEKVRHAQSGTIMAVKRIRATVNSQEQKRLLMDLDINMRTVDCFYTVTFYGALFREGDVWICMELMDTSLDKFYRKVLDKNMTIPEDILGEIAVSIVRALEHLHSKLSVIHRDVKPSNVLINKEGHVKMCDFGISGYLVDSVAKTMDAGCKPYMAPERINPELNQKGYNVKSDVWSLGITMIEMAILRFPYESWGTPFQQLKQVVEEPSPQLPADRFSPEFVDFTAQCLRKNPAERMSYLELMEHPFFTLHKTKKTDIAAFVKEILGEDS

Mus musculus [25] = experiment: Anti-ulcerative colitis activity against DSS-induced ulcerative colitis C57BL/6 mouse model assessed as body weight recovery rate at 1 mg/kg, IG via gavage administered for 7 days and measured everyday relative to control; type: functional; conditions: time 7 day
[26] = Toxicity in C57 mouse assessed as liver damage at 50 to 500 mg/kg, po administered daily for 14 days; type: organism-based; conditions: in vivo, 336 h, dose 50-500 mg/kg, time 14 day
Mus musculus [27] = experiment: Antiinflammatory activity against DSS-induced C57BL/6 mouse model of acute ulcerative colitis assessed as reduction in serum IL-23 levels administered intragastrically via gavage measured after 7 days by ELISA; type: functional, organism-based; conditions: dose 1-10 mg/kg, route ig, time 7.0 day, DDE = dose-dependent effect

With `COc1ccc([C@H]2CC(=O)c3cc(OC)cc(OC)c32)cc1` the CLH [1] was 121.4 mL/min/g, the logP at 24 h [2] was 2.01 and the Activity [3] was “Non-Toxic”. It also gave an AUC(0-inf) [4] of 8640 ng·h/mL, a half-life [5] of 9.29 h and a CLz/F [6] of 9.67 mL/min/kg. It also gave a bioavailability [7] of 33%, an Activity (Mus musculus [8]) of 33.3% and an Activity (Mus musculus [9]) of 32.9%. For the same compound, the Activity (Mus musculus [10]) was 46.9%, the Activity (Mus musculus [11]) was 64.4% and the Activity (Mus musculus [12]) was 32.8%. The Activity (Mus musculus [13]) was 68%, the Activity (Mus musculus [14]) was 87.2% and the Activity (Mus musculus [15]) was 73.2%. The Activity (Mus musculus [16]) was 89.9%, the Activity (Mus musculus [17]) was 29.4% and the Activity (Mus musculus [18]) was 50.5%. The Activity (Mus musculus [19]) was 51.8%, the Activity (Mus musculus [20]) was 57.6% and the Activity (Mus musculus [21]) was 48.6%. The pIC50 [22] was 5.40, the inhibition (Mus musculus [23]) was “Dde” and the pKd [24] was 7.15. For the same compound, the Activity (Mus musculus [25]) was 22.7%, the Activity [26] was “Non-Toxic” and the Activity (Mus musculus [27]) was “Dde”.
